Marks after values point to notes of the source that are not given here.
Legend:
[1] = Human clinical trial: osmotic pressure of early morning urine (freezing point depression method); type: in vivo
Procedure: (§1) 1. […] Patients were assigned to each group so that age, sex, presence of diabetes, and eGFR were not biased. Each group was treated according to the “CKD medical care guide-summary of treatment” (hereinafter referred to as standard treatment).
(§2) An alkalinizing agent was not administered to the control group. […] A pH of early morning urine was controlled over time so that the dosage could be increased up to 6 tablets, 3 times a day (morning, noon, evening) as needed according to the discretion of the physician in cases where a pH of early morning urine was less than pH 6.5. To the group B, 3 tablets a day in which each tablet contained 500 mg of sodium bicarbonate were orally administered 3 times a day (morning, noon, evening) for 24 weeks. A pH of early morning urine was controlled over time so that the dosage could be increased up to 6 tablets, 3 times a day (morning, noon, evening) as needed according to the discretion of the physician in cases where a pH of early morning urine was less than pH 6.5.
The osmotic pressure was measured using the freezing point depression method.

[2] = system: phenylacetyl-L-glutamine; test: Urine phenylacetyl-L-glutamine (PAG) corrected by urinary specific gravity; type: in vivo, human
Text: Medical Examination, Vol. 44, No. 1, 1995, pages 79-83 by Tetsuo Aoki et al. was referred to. A urinary specific gravity 1.022 was converted into a reference value.
Specific gravity correction value (unit/1.022·UG)=actual measurement value×(1.022−1.000)/(specific gravity value−1.000)

[3] = system: phenylacetyl-L-glutamine; test: Human clinical trial in CKD patients: phenylacetyl-L-glutamine in plasma and early morning urine (LC-MS/MS); type: in vivo; design: key to Influence on concentration of PAG / Influence on PAG U/P ratio: Excellent effects: ◯; Poor effects: X; No significant difference: —; (◯): whether or not there is an effect of promoting excretion of indoxyl sulfate into the urine cannot be determined
Procedure: as §1, §2
(§3) Early morning urine and blood were collected before the start of administration, and 6 weeks, 12 weeks, and 24 weeks after the start of administration, and each specimen was stored at −80° C. Methods used in the present field for indoxyl sulfate, p-cresyl sulfate, phenylacetyl-L-glutamine, hippuric acid, and argininosuccinic acid in urine and blood (Sato, E., et. al., Metabolic alteration by indoxyl sulfate in skeletal muscle induce uremic sarcopenia in chronic kidney disease., Sci Rep. 2016 Nov. 10; 6:36618. doi: 10.1038/srep36618, and the like) were referred to, and quantitative analysis was performed using the following liquid chromatography triple quadrupole mass spectrometer (LC-MS/MS).
For LC, NANOSPACE SI-2 (manufactured by Shiseido) was used, and […] MGM was selected as the analytical column.
For MS, TSQ Quantiva (manufactured by Thermo Fisher Scientific Co., Ltd.) was used, and five compounds were ionized in the negative mode and detected using the Selected Reaction Monitoring method. The quantitative value was calculated using a calibration curve prepared with a standard solution of each compound.
(§4) For statistical analysis, the Mann-Whitney test was used for comparison between groups, and the Wilcoxon test was used for comparison of changes over time. The Pearson test was used for correlation.
Then, the average value and SD of each group were calculated for (i) to (ix) above. For each of (iv) to (ix) above, the average value and SD of each group were calculated for all data of 6 weeks, 12 weeks, and 24 weeks after the start of administration in each group.

[4] = system: β2-microglobulin; test: Human clinical trial: urinary β2-microglobulin (latex agglutination method); type: in vivo
Procedure: as §1, §2, §3
In addition, the amount of urinary β2-microglobulin was measured by latex agglutination method using the LZ test “Eiken” β2-M and LZ-β2-M standard U “Eiken” (Eiken Chemical Co., Tokyo, Japan). Furthermore, the amount of cystatin C in the serum was measured by a colloidal gold agglutination method using Nescoat GC Cystatin C (Nm) (Alfresa Pharma, Osaka, Japan).
as §4

[5] = 0 W, before the start of administration
[6] = 6-24 W, all data of 6, 12 and 24 weeks

Structure (SMILES): O=C([O-])O.[Na+] [Bicarbonate, sodium bicarbonate]
- Urine Osmotic Pressure ([1]; 0 W, before the start of the test): 492 ± 206 mOsm/kg
- Urine Osmotic Pressure ([1]; 6-24 W, all data): 486 ± 164 mOsm/kg
- Urine Osmotic Pressure (% Relative value vs week 0) ([1]; 6-24 W, all data): 109 ± 45^b %
- Urine Osmotic Pressure, difference vs week 0 ([1]; 6-24 W, all data): −6 ± 168 mOsm/kg
- Urine Osmotic Pressure ([1]; 6 W): 488 ± 154 mOsm/kg
- Urine Osmotic Pressure (% Relative value vs week 0) ([1]; 6 W): 108 ± 34%
- Urine Osmotic Pressure, difference vs week 0 ([1]; 6 W): −4 ± 165 mOsm/kg
- Urine Osmotic Pressure ([1]; 12 W): 456 ± 143 mOsm/kg
- Urine Osmotic Pressure (% Relative value vs week 0) ([1]; 12 W): 105 ± 57%
- Urine Osmotic Pressure, difference vs week 0 ([1]; 12 W): −36 ± 176^ mOsm/kg
- Urine Osmotic Pressure ([1]; 24 W): 515 ± 195 mOsm/kg
- Urine Osmotic Pressure (% Relative value vs week 0) ([1]; 24 W): 114 ± 45%
- Urine Osmotic Pressure, difference vs week 0 ([1]; 24 W): 23 ± 169 mOsm/kg
- osmotic pressure value of early morning urine ([1]; over 6, 12 and 24 weeks, compared with the control group): maintained or increased
- Urine PAG, specific gravity corrected ([2]; 0 W): 203.6 ± 169.1 μg · mL^−1/1.022 · UG
- Urine PAG, specific gravity corrected ([2]; 6-24 W, all data): 162.0 ± 182.5 μg · mL^−1/1.022 · UG
- Urine PAG, specific gravity corrected, % Relative value vs week 0 ([2]; 6-24 W, all data): 87 ± 60%
- Urine PAG, specific gravity corrected, difference vs week 0 ([2]; 6-24 W, all data): −41.6 ± 126.8 μg · mL^−1/1.022 · UG
- Urine PAG, specific gravity corrected ([2]; 6 W): 202.9 ± 260.9 μg · mL^−1/1.022 · UG
- Urine PAG, specific gravity corrected, % Relative value vs week 0 ([2]; 6 W): 97 ± 71%
- Urine PAG, specific gravity corrected, difference vs week 0 ([2]; 6 W): −0.7 ± 162.0 μg · mL^−1/1.022 · UG
- Urine PAG, specific gravity corrected, % Relative value vs week 0 ([2]; 12 W): 76 ± 60%
- Urine PAG, specific gravity corrected, difference vs week 0 ([2]; 12 W): −67.6 ± 91.9 ^ μg · mL^−1/1.022 · UG
- Urine PAG, specific gravity corrected ([2]; 24 W): 147.1 ± 116.4 μg · mL^−1/1.022 · UG
- Urine PAG, specific gravity corrected, % Relative value vs week 0 ([2]; 24 W): 88 ± 49%
- Urine PAG, specific gravity corrected, difference vs week 0 ([2]; 24 W): −56.5 ± 113.7 μg · mL^−1/1.022 · UG
- Phenyl Acetyl L-Glutamine (PAG)-Urine/Plasma ratio [3, 5]: 102.2 ± 96.5
- Plasma Phenyl Acetyl L-Glutamine (PAG) [3, 5]: 1324 ± 949 ng/mL
- Urine Phenyl Acetyl L-Glutamine (PAG) (early morning urine) [3, 5]: 124676 ± 149757 ng/mL
- PAG - Urine/Plasma ratio, change from week 0 [3, 6]: −14.9 ± 95.3
- Phenyl Acetyl L-Glutamine (PAG)-Urine/Plasma ratio [3, 6]: 87.3 ± 86.2
- Plasma PAG, change from week 0 [3, 6]: -98.6 ± 688.1 ng/mL
- Plasma Phenyl Acetyl L-Glutamine (PAG) [3, 6]: 1226 ± 983 ng/mL
- Urine PAG, change from week 0 [3, 6]: -13663 ± 74566 ng/mL
- Urine Phenyl Acetyl L-Glutamine (PAG) (early morning urine) [3, 6]: 109378 ± 163923 ng/mL
- PAG - Urine/Plasma ratio, change from week 0 ([3]; 6 W): −8.5 ± 57.8
- Phenyl Acetyl L-Glutamine (PAG)-Urine/Plasma ratio ([3]; 6 W): 93.7 ± 84.0
- Plasma PAG, change from week 0 ([3]; 6 W): -84.0 ± 636.1 ng/mL
- Plasma Phenyl Acetyl L-Glutamine (PAG) ([3]; 6 W): 1240 ± 1062 ng/mL
- Urine PAG, change from week 0 ([3]; 6 W): 20077 ± 118811 ng/mL
- Urine Phenyl Acetyl L-Glutamine (PAG) (early morning urine) ([3]; 6 W): 144753 ± 246773 ng/mL
- PAG - Urine/Plasma ratio, change from week 0 ([3]; 12 W): −31.8 ± 81.8
- Phenyl Acetyl L-Glutamine (PAG)-Urine/Plasma ratio ([3]; 12 W): 70.4 ± 46.8
- Plasma PAG, change from week 0 ([3]; 12 W): -171.6 ± 896.9 ng/mL
- Plasma Phenyl Acetyl L-Glutamine (PAG) ([3]; 12 W): 1153 ± 1000 ng/mL
- Urine PAG, change from week 0 ([3]; 12 W): -42198 ± 85069 ng/mL
- Urine Phenyl Acetyl L-Glutamine (PAG) (early morning urine) ([3]; 12 W): 82478 ± 112943^b ng/mL
- concentration of phenylacetyl-L-glutamine in urine ([3]; 12 and 24 weeks after administration, compared to before administration): such an effect was not recognized
- PAG - Urine/Plasma ratio, change from week 0 ([3]; 24 W): −4.3 ± 133.9
- Phenyl Acetyl L-Glutamine (PAG)-Urine/Plasma ratio ([3]; 24 W): 97.9 ± 116.4
- Plasma PAG, change from week 0 ([3]; 24 W): -40.3 ± 514.7 ng/mL
- Plasma Phenyl Acetyl L-Glutamine (PAG) ([3]; 24 W): 1284 ± 945 ng/mL
- Urine PAG, change from week 0 ([3]; 24 W): -23774 ± 117957 ng/mL
- Urine Phenyl Acetyl L-Glutamine (PAG) (early morning urine) ([3]; 24 W): 100902 ± 91424 ng/mL
- Influence on concentration of PAG ([3]; Plasma, comparison with Cont): —
- Influence on concentration of PAG ([3]; Plasma, comparison with reference drug): —
- Influence on PAG U/P ratio ([3]; comparison with Cont): —
- Influence on PAG U/P ratio ([3]; comparison with reference drug): —
- Influence on concentration of PAG ([3]; Urine, comparison with Cont): —
- Influence on concentration of PAG ([3]; Urine, comparison with reference drug): X
- concentration of phenylacetyl-L-glutamine in plasma (decreasing effect) ([3]; compared to before administration): strongly recognized
- Urine B2-microglobulin [4, 5]: 99.0 ± 62.8 µg/L
- Urine B2-microglobulin [4, 6]: 206.2 ± 255.8^a μg/L
- Urine B2-microglobulin, change from week 0 [4, 6]: 148.3 ± 258.4 ^b ug/L
- Urine B2-microglobulin ([4]; 6 W): 216.3 ± 228.2^e μg/L
- Urine B2-microglobulin, change from week 0 ([4]; 6 W): 117.3 ± 220.7 µg/L
- Urine B2-microglobulin ([4]; 12 W): 264.5 ± 301.9 µg/L
- Urine B2-microglobulin, change from week 0 ([4]; 12 W): 165.5 ± 282.0^ ug/L
- Urine B2-microglobulin ([4]; 24 W): 261.0 ± 301.5^c,f μg/L
- Urine B2-microglobulin, change from week 0 ([4]; 24 W): 162.0 ± 281.8 ^c ug/L
- kidney tubular damage (kidney proximal tubular damage) associated with progression of the stage ([4]; from urinary β2-microglobulin): did not suppress

— patent publication US20210121426A1, “BLOOD PURIFICATION BY ALKALINIZING AGENT” (TOHOKU UNIVERSITY, priority 2017, published 2021)
